Laboratory results published in patent US8119636B2, “Pyrrolopyrazine kinase inhibitors” (Roche Palo Alto LLC, priority 2008, dated 2012).

Q: Which melting point does the source give for `CC(C)CC(=O)c1c[nH]c2ncc(Br)nc12` [Compound I-1, 1-(2-Bromo-5H-pyrrolo[2,3-b]pyrazin-7-yl)-3-methyl-butan-1-one] here?
A: The melting point was 183 to 187.5 °C.

Q: For `CC(C)NC(=O)c1c[nH]c2ncc(Cl)nc12` [Compound I-3, 2-Chloro-5H-pyrrolo[2,3-b]pyrazine-7-carboxylic acid isopropylamide], which melting point is on record?
A: The melting point was 278 to 279 °C.

Q: For `CC(C)(C)C(=O)c1c[nH]c2ncc(Cl)nc12` [Compound I-6, 1-(2-Chloro-5H-pyrrolo[2,3-b]pyrazin-7-yl)-2,2-dimethyl-propan-1-one], which melting point is on record?
A: The melting point was 209 to 210 °C.

Q: Which melting point does the source give for `CC1(C(=O)c2c[nH]c3ncc(Br)nc23)CCCCC1` [Compound I-7, (2-Bromo-5H-pyrrolo[2,3-b]pyrazin-7-yl)-(1-methyl-cyclohexyl)-methanone] here?
A: The melting point was 198 to 199 °C.

Q: With `CC(C)(C)C(=O)c1c[nH]c2ncc(Br)nc12` [Compound I-8, 1-(2-Bromo-5H-pyrrolo[2,3-b]pyrazin-7-yl)-2,2-dimethyl-propan-1-one] as the molecule, how does the melting point read?
A: Its melting point is 213 to 214 °C.

Q: Which melting point does the source give for `C#Cc1cnc2[nH]cc(C(=O)C(C)(C)C)c2n1` [Compound I-11, 1-(2-Ethynyl-5H-pyrrolo[2,3-b]pyrazin-7-yl)-2,2-dimethyl-propan-1-one] here?
A: The melting point was 229 to 231 °C.

Q: Which melting point does the source give for `CCc1cnc2[nH]cc(C(=O)C(C)(C)C)c2n1` [Compound I-12, 1-(2-Ethyl-5H-pyrrolo[2,3-b]pyrazin-7-yl)-2,2-dimethyl-propan-1-one] here?
A: The melting point was 215 to 216 °C.

Q: For `CC(C)C(O)c1cnc2[nH]cc(C(=O)C(C)(C)C)c2n1` (stereo not shown) [Compound I-15, 1-[2-(1-Hydroxy-2-methyl-propyl)-5H-pyrrolo[2,3-b]pyrazin-7-yl]-2,2-dimethyl-propan-1-one], which melting point is on record?
A: The melting point was 148 to 150 °C.

Q: With `Cc1ccccc1C(O)c1cnc2[nH]cc(C(=O)C(C)(C)C)c2n1` (stereo not shown) [Compound I-16, 1-[2-(Hydroxy-o-tolyl-methyl)-5H-pyrrolo[2,3-b]pyrazin-7-yl]-2,2-dimethyl-propan-1-one] as the molecule, how does the melting point read?
A: Its melting point is 181 to 183 °C.

Q: Which melting point does the source give for `CC(C)(C)C(=O)c1c[nH]c2ncc(C(O)c3ccccc3)nc12` (stereo not shown) [Compound I-17, 1-[2-(Hydroxy-phenyl-methyl)-5H-pyrrolo[2,3-b]pyrazin-7-yl]-2,2-dimethyl-propan-1-one] here?
A: The melting point was 168 to 170 °C.

Q: For `CC(C)(C)C(=O)c1c[nH]c2ncc(C(O)c3ccncc3)nc12` (stereo not shown) [Compound I-18, 1-[2-(Hydroxy-pyridin-4-yl-methyl)-5H-pyrrolo[2,3-b]pyrazin-7-yl]-2,2-dimethyl-propan-1-one], which melting point is on record?
A: Its melting point is 189.1 to 194.9 °C.

Q: With `CC(C)(C)C(=O)c1c[nH]c2ncc(C(O)c3cccnc3)nc12` (stereo not shown) [Compound I-19, 1-[2-(Hydroxy-pyridin-3-yl-methyl)-5H-pyrrolo[2,3-b]pyrazin-7-yl]-2,2-dimethyl-propan-1-one] as the molecule, how does the melting point read?
A: The melting point was 192 to 194 °C.

Q: For `CC1(C(=O)c2c[nH]c3ncc(Br)nc23)CCCCCC1` [Compound I-24, (2-Bromo-5H-pyrrolo[2,3-b]pyrazin-7-yl)-(1-methyl-cycloheptyl)-methanone], which melting point is on record?
A: The melting point was 197.7 to 198.2 °C.
